Several values for one entry are separate records, joined by “and”; a condition that tells them apart may be missing. Equal entries are not always repeated. Where two headings read alike, the source gives them in different places.
Experiments:
[1] = Struck et al., J. Med. Chem., 9, 414-416 (1966); cited from earlier work
[2] = test system: mammary adenocarcinoma 16/c; test: sc mammary adenocarcinoma 16/c tumor model; format: in vivo, mice (C3H); conditions: for Inhibition: Day 21
Description: In this experiment, the tumor was implanted sc in C3H mice, and the drug was administered ip or iv on an intermittent treatment schedule, i.e., once on days 1, 5, 9, 13 and 17. Tumors were measured 3 weeks after implantation, and activity was assessed by degree of tumor growth inhibition.
*N.P. = Proportion of mice without palpable tumors on Day 21

[3] = test system: M5076 reticulum cell sarcoma; conditions: positive control, general statement; cited from earlier work
[4] = test system: mammary adenocarcinoma 16/c; conditions: positive control, general statement; cited from earlier work
B16 melanoma cells = test: B16 melanoma cell assay, clonogenic capacity in vitro after two-hour exposure; format: cell-based; conditions: 2-hour exposure; read-out: IC50: concentration which inhibits cloning efficiency of B16 melanoma cells by 50%
Description: The B16 melanoma cell assay measures the ability of a compound to inhibit the clonogenic capacity of cells in vitro following a two-hour exposure to the compound.
B16 melanoma (highly metastatic subline, F10) are used and maintained as monolayer cultures in Minimal Essential Media (Grand Island Biological Col., Grand Island, N.Y.) supplemented with 10% calf serum, 1% antibiotics in a 5% CO2 humidified incubator at 37° C. Asynchronous populations of cells are harvested and replated to 5000 cells/plate in sterile 60 mm×15 mm petri plates. Plates are incubated overnight to allow attachment of the cells to the plate. Cells are treated with a Formula (I) or Formula (II) compound/under sterile conditions, allowed to react for 2 hours followed by aspiration of medium. Plates are washed one time with 5 ml of phosphate buffered saline (PBS), followed by the addition of 5 ml of fresh medium. Plates are incubated for 5 days at 37° C. in a CO2 incubator. Viability is measured by the ability of a cell to form a colony of greater than 50 cells. Colonies are fixed with 0.5% crystal violet in 95% ethanol. Plates are dried and counted with a Biotran III Automatic Count Totalizer (New Brunswick Scientific Co., Edison, N.J.). Mean and standard deviation of triplicate samples are determined for each drug concentration. The data are analyzed plotting the log of the survival fraction (number of colonies in drug treated plates/number of colonies in controls) versus the drug concentration.
^a Concentration which inhibits cloning efficiency of B16 melanoma
cells by 50% on a 2hour exposure

P388 leukemia = test: ip P388 leukemia mouse model; format: in vivo, mice (B6D2F1); conditions: for MTD (maximally tolerated dose): B6D2F female mice, ip qDX5; for ILS max (maximum increase in lifespan): mice bearing ip P388 leukemia, ip days 1-5 at MTD, slash-separated figures are separate experiments
Description: This tumor system is widely accepted as an antitumor agent screening tool because it is sensitive to virtually all of the clinically active antineoplastic agents; quantitative and reproducible; amenable for large-scale screening; and predictive for activity in other animal tumor models.
10^6 P388 leukemia cells are inoculated ip in B6D2F1 mice. Twenty-four hours later, if the tumor inoculum proves to be free of bacterial contamination (as determined by 24 hours incubation in thioglycollate broth), animals are randomized into groups of 6 and housed in shoebox cages. […] An equal volume of saline or water is added; if the drug comes out of solution an equal volume of Cremophor (polyethoxylated castor oil) is added and then saline or water, as to a concentration such that the desired dose is delivered in 0.5 ml. The final concentration of DMA, ethanol or Cremophor is 10 percent. Dilutions for lower doses are made with saline or water so that there is a decreasing proportion of organic solvents in the vehicle with decreasing dosage. […] Formulations are prepared immediately prior to injection. The Formula (I) and Formula (II) compounds are administered ip on Days 1 through 5 (i.e., treatment is initiated 24 hrs after tumor inoculation). Each experiment includes three groups of 6 animals as untreated controls and animals treated with a positive control, cisplatin, at two dose levels. Animals are weighed as a group on Days 1, 5 and 9 and average weight change (Δwt.) is used as a reflection of toxicity. Each experiment also includes an inoculum titration--groups of 8 mice inoculated ip with 10^5 to 10^0 P388 leukemia cells. The titration is used as a quality control check for the performance of the tumor model. Animals are monitored daily for mortality and experiments are terminated after 45 days. The endpoint is median survival time (MST) and increase in lifespan (ILS) which is the percentage of increase in MST relative to untreated controls.

[5] = test system: M5076 reticulum cell sarcoma; conditions: 2 mg/kg ip, qD × 10
Description: B6D2F female mice are inoculated sc in the flank with 0.5 ml of a 10% (w:v) brei of M5076 prepared from pooled sc tumors excised at about Day 21 from C57Bl/6 donors. Treatment is initiated one day after tumor implantation, and is continued daily for 10 days. Tumors are measured 21 days after tumor implantation activity is determined by the degree of tumor growth inhibition.

B16 melanoma = test: in vivo ip B16 melanoma assay; set-up: species or system mice (B6D2F1); conditions: ip qDX10; for MTD (maximally tolerated dose): B6D2F1 mice; for ILS (maximum increase in lifespan): mice bearing ip B16 melanoma, slash-separated figures are separate experiments
Description: Daily treatment is begun 24 hours after tumor implantation and is continued daily for ten (10) days. The route of drug administration is ip. The mice are monitored daily for survival for sixty (60) days. Antitumor activity is assessed by prolongation of median survival time. An ILS of ≥25% indicates activity in this tumor model.
^(b) maximally tolerated dose for B6D2F1 mice on an ip qDX10
^(c) maximum increase in lifespan produced in mice bearing ip B16

[6] = test system: M5076 reticulum cell sarcoma; test: ip M5076 reticulum cell sarcoma in mice; format: in vivo, mice (B6D2F female); conditions: for MTD (maximally tolerated dose): B6D2F female mice, ip qDX10; for ILS max (maximum increase in lifespan): mice bearing ip M5076, ip qDX10 at MTD, slash-separated figures are separate experiments
Description: Another tumor model used for evaluation of tumor growth inhibiting drugs is intraperitoneally implanted M5076 reticulum cell sarcoma in mice. […] Drugs are administered ip. Daily treatment is begun 24 hours after implantation and is continued for ten days. The treatment regimen for M5076 is more prolonged than for P388 because of the slower growth rate and longer control survival time of the M5076 tumor. Compounds of Formula (I) and Formula (II) were evaluated in this assay. An evaluation of several compounds of Formula (I) in the M5076 reticulum cell sarcoma assay at their maximally tolerated dose (MTD) is set forth in Table III. An ILS of ≥25% indicates activity in this tumor model.
^(b) maximally tolerated dose for B6D2F female mice on an ip qDX10
^(c) maximum increase in lifespan produced in mice bearing ip M5076

[7] = test system: HT-29 human colon carcinoma cells; test: HT-29 human colon carcinoma cell killing in vitro; format: cell-based; conditions: 2-hour exposure
[8] = solubility in 9:1 water:ethanol (HPLC of filtrate)
Description: (§1) Such solubility was determined as follows: The compound in question was dissolved or suspended in absolute ethanol (250 mg solid per 1.0 ml ethanol). To the resulting solution or suspension, water (9.0 times the volume of ethanol) was added. This suspension was stirred vigorously for 15 hours, then filtered through a 0.45 μm poly(tetrafluoroethylene) (PTFE) filter. […] The HPLC system was as follows:
(§2) Column PLRP-S, 5μm, obtained from Polymer Laboratories, Inc.
(§3) Mobile Phase 9:1 acetonitrile:0.1% tetra-n-butylammonium hydrogen sulfate (50° C., 1.0 ml-min-^-1)
Detection Ultraviolet (250 nm)

[9] = 15 h
Description: as §1, §2, §3
Detection Ultraviolet (250 nm)

[10] = Experiment 1, ip, q4D × 5, 6 mg/kg
[11] = Experiment 2, ip, q4D × 5, 6 mg/kg
[12] = Experiment 2, iv, q4D × 5, 6 mg/kg
[13] = Experiment 3, ip, q4D × 5, 6 mg/kg
[14] = Experiment 1, ip, q4D × 5, 8 mg/kg
[15] = Experiment 2, iv, q4D × 5, 12 mg/kg
[16] = Experiment 3, ip, q4D × 5, 8 mg/kg

Molecule	IC50 (B16 melanoma cells) [µM]	MTD (maximally tolerated dose) (P388 leukemia) [mg/kg]	ILS max (maximum increase in lifespan) (P388 leukemia)	MTD (maximally tolerated dose) (B16 melanoma) [mg/kg]	ILS (maximum increase in lifespan) (B16 melanoma)	MTD (maximally tolerated dose) [6] [mg/kg]	ILS max (maximum increase in lifespan) [6]	further results
c1ccc(P(CCP(c2ccccc2)c2ccccc2)c2ccccc2)cc1 [1,2-bis(diphenyl-phosphino)ethane]	–	–	–	–	–	–	–	cytotoxic activity (in words) [1]: cytotoxic activity
N.N.[Cl][Pt][Cl] [Cisplatin, reference compound]	–	–	–	–	–	–	–	Mean Tumor Volume on Day 21 [2, 10]: 30 ± 64 mm^3; N.P. (proportion of mice without palpable tumors on Day 21) [2, 10]: 6/8; Inhibition [2, 10]: 97%; Mean Tumor Volume on Day 21 [2, 11]: 0 mm^3; N.P. (proportion of mice without palpable tumors on Day 21) [2, 11]: 8/8; Inhibition [2, 11]: 100%; Mean Tumor Volume on Day 21 [2, 12]: 21 ± 61 mm^3; N.P. (proportion of mice without palpable tumors on Day 21) [2, 12]: 7/8; Inhibition [2, 12]: 98%; Mean Tumor Volume on Day 21 [2, 13]: 586 ± 266 mm^3; N.P. (proportion of mice without palpable tumors on Day 21) [2, 13]: 0/8; Inhibition [2, 13]: 37%; tumor growth inhibition (in words) [3]: complete tumor growth inhibition; inhibition of the growth of mammary adenocarcinoma 16/c (in words) [4]: complete inhibition
[Au+].[Cl-].c1ccc(P(CCP(c2ccccc2)c2ccccc2)c2ccccc2)cc1.c1ccc(P(CCP(c2ccccc2)c2ccccc2)c2ccccc2)cc1 [Compound No. 1, Bis[1,2-Bis(diphenylphosphino)ethane]Gold(I) Chloride]	4.5	2	83 ± 24%	2	50% and 43% and 33% and 28% and 37%	2	56% and 83% and 52% and 47% and 49%	Mean Tumor Volume on Day 21 [2, 14]: 96 ± 143 mm^3; N.P. (proportion of mice without palpable tumors on Day 21) [2, 14]: 4/7; Inhibition [2, 14]: 92%; Mean Tumor Volume on Day 21 [2, 11]: 430 ± 291 mm^3; N.P. (proportion of mice without palpable tumors on Day 21) [2, 11]: 0/8; Inhibition [2, 11]: 61%; Mean Tumor Volume on Day 21 [2, 15]: 181 ± 163 mm^3; N.P. (proportion of mice without palpable tumors on Day 21) [2, 15]: 2/8; Inhibition [2, 15]: 84%; Mean Tumor Volume on Day 21 [2, 16]: 0 mm^3; N.P. (proportion of mice without palpable tumors on Day 21) [2, 16]: 5/5; Inhibition [2, 16]: 100%; % Inhibition of tumor growth (Day 21) [5]: 91% and 48%; N.P. (proportion of mice without palpable tumor on Day 21) [5]: 2/7 and 1/7; effectively killed HT-29 cells following exposure to concentrations [7]: < 10 µM; solubility in 9:1 water:ethanol (in words) ([8]; 9:1 water:ethanol): true solution; Solubility in 9:1 Water:Ethanol ([8]; stirred 15 hours, 0.45 μm PTFE filter, HPLC): 170 µg/mL; solubility in water (in words) ([8]; water): forms a suspension in water
[Au+].[Cl-].c1ccc(P(CCCP(c2ccccc2)c2ccccc2)c2ccccc2)cc1.c1ccc(P(CCCP(c2ccccc2)c2ccccc2)c2ccccc2)cc1 [compound 4, Bis[1,3-Bis(diphenylphosphino)propane]Gold(I) Chloride]	0.6	3	89 ± 28%	2	34% and 28% and 40%	2	116%	–
O=C([O-])C(O)CO.[Au+].c1ccc(P(CCP(c2ccccc2)c2ccccc2)c2ccccc2)cc1.c1ccc(P(CCP(c2ccccc2)c2ccccc2)c2ccccc2)cc1 [compound 25, Bis[1,2-bis(diphenylphosphino)ethane]gold(I) DL-2,3-dihydroxypropanoate]	–	2	55% and 65%	0.75	28%	–	–	Solubility in 9:1 Water:Ethanol [9]: 2200 µg/mL
Bis[1,2-bis(diphenylphosphino)ethane]Silver(I) Nitrate [compound 2]	4	3	89% and 90%	–	–	2	48%	–
Bis[cis-1,2-bis(diphenylphosphino)ethylene]Gold(I) Chloride [compound 3]	2	2	92 ± 26%	1.5	35%	2.4	69%	–
Tris[1,2-bis(diphenylphosphino)ethane]Dicopper(I) Chloride	–	2	100% and 115%	1	54%	1.6	60%	–

— patent US5037812A, “Tumor cell growth-inhibiting pharmaceutical compositions containing phosphino-hydrocarbon-gold, silver or copper complexes” (priority 1986, dated 1991)
